From US20050154033A1, “Methods of using zonisamide as an adjunctive therapy for partial seizures” (Eisai Co., Ltd, priority 2004, published 2005)

Key:
[1] = parameters: species or system patients (human); settings: human, in vivo
From the text: The pharmacovigilance data that were collected, reviewed and analyzed provided the following information in respect of the incidence of NMS. To date, a total of 3 cases (two adult and one pediatric) fulfill the criteria of potential neuroleptic malignant syndrome. These cases were reviewed in detail for evaluation of possible safety signals. They were all deemed serious, and in all cases, the patients recovered with appropriate treatment.
Cases ZONI000813 and ZONI000929 are adult cases from Japan. In both cases the patients carried a diagnosis of Parkinson's disease (PD) and were enrolled in a double blind, placebo controlled […] study of zonisamide as a potential treatment for PD (Protocol AD810N-202-1). […]
Estimates of exposure, based upon retail and mail order prescriptions, indicate that the number of unique patients taking zonisamide capsules in the U.S. is about 37,276 (total prescriptions per year/average number of prescriptions per patient per year less a calculated percentage decrease based on estimated annual dropouts) in the time between approval in 2000 and December 2002 . […] Similarly, the incidences of NMS estimated herein are unlikely to be higher than calculated. Based on the exposure data and number of NMS cases, the incidence of NMS in the U.S. and Japan is calculated to be about 1:37,276 unique patients and 1:592,588 unique patients, respectively.

sodium channels = settings: in vitro; cited from earlier work
T-type Ca^2+ currents = settings: in vitro; cited from earlier work
[2] = system: GABA/benzodiazepine receptor ionophore complex; settings: in vitro; does not produce changes in chloride flux; cited from earlier work
[3] = system: cultured mouse spinal cord neurons; settings: 10-30 μg/mL, cited from earlier work
rat hippocampal slices = settings: 10-30 μg/mL; cited from earlier work
[4] = system: dopaminergic and serotonergic neurotransmission; settings: in vivo microdialysis; cited from earlier work
[5] = upon reaching a stable dose or following dosage adjustment; cited from earlier work
carbonic anhydrase = settings: relative to acetazolamide; cited from earlier work

NS(=O)(=O)Cc1noc2ccccc12 [zonisamide, 1,2-benzisoxazole-3-methanesulfonamide]
cases fulfilling the criteria of potential neuroleptic malignant syndrome [1]: 3 cases | incidence of NMS [1]: about 1:37,276 unique patients | effect on sodium channels (sodium channels): blocks sodium channels | effect on T-type Ca2+ currents (T-type Ca^2+ currents): reduces voltage-dependent, transient inward currents | binding to GABA/benzodiazepine receptor ionophore complex [2]: binds to the GABA/benzodiazepine receptor ionophore complex in an allosteric fashion | postsynaptic GABA or glutamate responses ([3]; cultured mouse spinal cord neurons): without affecting | synaptically-driven electrical activity [3]: suppresses synaptically-driven electrical activity | neuronal or glial uptake of [3H]-GABA (rat hippocampal slices): without affecting | effect on neurotransmission [4]: facilitates both dopaminergic and serotonergic neurotransmission | time required to achieve steady-state levels [5]: up to two weeks | carbonic anhydrase inhibition compared to acetazolamide (carbonic anhydrase): 1/50
